Assay: xn = mol fraction of the nth substance listed
Settings: 100 kPa, Liquid; for viscosity: Capillary tube (Ostwald / Ubbelohde) method; for mass density: Vibrating tube method

CC1CC(=O)O1 (stereo not drawn) [4-methyl-2-oxetanone] + CCCC[n+]1ccn(C)c1.O=S(=O)([N-]S(=O)(=O)C(F)(F)F)C(F)(F)F
Settings | mass density [kg/m3] | viscosity [mPa·s]
293.15 K, x2 = 0 | 1055.93 | 1.68
293.15 K, x2 = 0.0493 | 1119.77 | 2.14
293.15 K, x2 = 0.1001 | 1167.52 | 2.75
293.15 K, x2 = 0.1526 | 1207.48 | 3.44
293.15 K, x2 = 0.2001 | 1240.41 | 4.75
293.15 K, x2 = 0.3001 | 1291.51 | 7.22
293.15 K, x2 = 0.4013 | 1329.17 | 10.69
293.15 K, x2 = 0.5004 | 1358.85 | 15.69
293.15 K, x2 = 0.5995 | 1382.95 | 22.26
293.15 K, x2 = 0.6929 | 1401.02 | 29.27
293.15 K, x2 = 0.814 | 1415.81 | 40.15
293.15 K, x2 = 0.9001 | 1434.72 | 50.31
298.15 K, x2 = 0 | 1050.68 | 1.55
298.15 K, x2 = 0.0493 | 1114.58 | 1.97
298.15 K, x2 = 0.1001 | 1162.33 | 2.52
298.15 K, x2 = 0.1526 | 1202.28 | 3.17
298.15 K, x2 = 0.2001 | 1235.24 | 4.38
298.15 K, x2 = 0.3001 | 1286.4 | 6.59
298.15 K, x2 = 0.4013 | 1324.12 | 9.61
298.15 K, x2 = 0.5004 | 1353.84 | 13.44
298.15 K, x2 = 0.5995 | 1377.94 | 18.55
298.15 K, x2 = 0.6929 | 1396.05 | 24.32
298.15 K, x2 = 0.814 | 1410.84 | 32.91
298.15 K, x2 = 0.9001 | 1429.79 | 41.25
303.15 K, x2 = 0 | 1045.31 | 1.48
303.15 K, x2 = 0.0493 | 1109.25 | 1.83
303.15 K, x2 = 0.1001 | 1157.05 | 2.3
303.15 K, x2 = 0.1526 | 1197 | 2.98
303.15 K, x2 = 0.2001 | 1229.97 | 3.9
303.15 K, x2 = 0.3001 | 1281.21 | 5.87
303.15 K, x2 = 0.4013 | 1318.98 | 8.14
303.15 K, x2 = 0.5004 | 1348.71 | 11.56
303.15 K, x2 = 0.5995 | 1372.86 | 15.74
303.15 K, x2 = 0.6929 | 1390.95 | 20.81
303.15 K, x2 = 0.814 | 1405.72 | 27.46
303.15 K, x2 = 0.9001 | 1424.69 | 34.24
308.15 K, x2 = 0 | 1039.85 | 1.4
308.15 K, x2 = 0.0493 | 1103.89 | 1.73
308.15 K, x2 = 0.1001 | 1151.73 | 2.13
308.15 K, x2 = 0.1526 | 1191.76 | 2.78
308.15 K, x2 = 0.2001 | 1224.72 | 3.51
308.15 K, x2 = 0.3001 | 1276.02 | 5.33
308.15 K, x2 = 0.4013 | 1313.79 | 7.28
308.15 K, x2 = 0.5004 | 1343.59 | 10.05
308.15 K, x2 = 0.5995 | 1367.78 | 13.61
308.15 K, x2 = 0.6929 | 1385.91 | 17.63
308.15 K, x2 = 0.814 | 1400.7 | 23.24
308.15 K, x2 = 0.9001 | 1419.71 | 28.09
313.15 K, x2 = 0 | 1034.33 | 1.33
313.15 K, x2 = 0.0493 | 1098.48 | 1.63
313.15 K, x2 = 0.1001 | 1146.34 | 1.99
313.15 K, x2 = 0.1526 | 1186.34 | 2.55
313.15 K, x2 = 0.2001 | 1219.4 | 3.21
313.15 K, x2 = 0.3001 | 1270.76 | 4.72
313.15 K, x2 = 0.4013 | 1308.61 | 6.41
313.15 K, x2 = 0.5004 | 1338.44 | 8.82
313.15 K, x2 = 0.5995 | 1362.65 | 11.75
313.15 K, x2 = 0.6929 | 1380.83 | 15.03
313.15 K, x2 = 0.814 | 1395.6 | 19.76
313.15 K, x2 = 0.9001 | 1414.64 | 23.76
318.15 K, x2 = 0 | 1028.79 | 1.25
318.15 K, x2 = 0.0493 | 1093.01 | 1.53
318.15 K, x2 = 0.1001 | 1140.96 | 1.86
318.15 K, x2 = 0.1526 | 1181.02 | 2.36
318.15 K, x2 = 0.2001 | 1214.09 | 2.94
318.15 K, x2 = 0.3001 | 1265.51 | 4.23
318.15 K, x2 = 0.4013 | 1303.39 | 5.76
318.15 K, x2 = 0.5004 | 1333.28 | 7.74
318.15 K, x2 = 0.5995 | 1357.54 | 10.26
318.15 K, x2 = 0.6929 | 1375.74 | 13.01
318.15 K, x2 = 0.814 | 1390.55 | 16.82
318.15 K, x2 = 0.9001 | 1409.63 | 20.35
323.15 K, x2 = 0 | 1023.19 | 1.18
323.15 K, x2 = 0.0493 | 1087.48 | 1.46
323.15 K, x2 = 0.1001 | 1135.51 | 1.72
323.15 K, x2 = 0.1526 | 1175.61 | 2.21
323.15 K, x2 = 0.2001 | 1208.72 | 2.7
323.15 K, x2 = 0.3001 | 1260.23 | 3.92
323.15 K, x2 = 0.4013 | 1298.21 | 5.18
323.15 K, x2 = 0.5004 | 1328.11 | 6.91
323.15 K, x2 = 0.5995 | 1352.41 | 9.02
323.15 K, x2 = 0.6929 | 1370.64 | 11.4
323.15 K, x2 = 0.814 | 1385.49 | 14.41
323.15 K, x2 = 0.9001 | 1404.58 | 17.27
